Patent US20240358693A1, “METHODS OF TREATING PAIN” (Aisa Pharma, Inc., priority 2023, published 2024)

Test system: participants with SSc-RP
Experiment: Scleroderma Health Assessment Questionnaire (SHAQ): disability indices and visual analog scales
Assay type: in vivo, human
Conditions: for SHAQ Alternative Disability Index, Mean / SHAQ Alternative Disability Index, Median / SHAQ Standard Disability Index, Mean / SHAQ Standard Disability Index, Median / SHAQ Visual Analogue Scale - Breathing Problems, Mean / SHAQ Visual Analogue Scale - Breathing Problems, Median / SHAQ Visual Analogue Scale - Finger Ulcers, Mean / SHAQ Visual Analogue Scale - Finger Ulcers, Median / SHAQ Visual Analogue Scale - Intestinal Problems, Mean / SHAQ Visual Analogue Scale - Intestinal Problems, Median / SHAQ Visual Analogue Scale - Overall Disease Severity, Mean / SHAQ Visual Analogue Scale - Overall Disease Severity, Median / SHAQ Visual Analogue Scale - Pain, Mean / SHAQ Visual Analogue Scale - Pain, Median / SHAQ Visual Analogue Scale - Raynaud's, Mean / SHAQ Visual Analogue Scale - Raynaud's, Median: Baseline; for SHAQ Alternative Disability Index, Mean / SHAQ Alternative Disability Index, Median / SHAQ Standard Disability Index, Mean / SHAQ Standard Disability Index, Median: Patients with Diagnosis of SSc
Summary of the method: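 Participants with SSc-RP completed the SHAQ at screening and each in-clinic visit. Standard and alternative disability indices (eight categories, 0–3; standard adjusts for aids/assistance) plus Raynaud's VAS on interference over the past 7 days. Reported as absolute change from baseline to end of each dosing period.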

[1] = Any Cilnidipine (N = 14), Day 12, Modified ITT, SSc patients, Part A
[2] = Any Cilnidipine (N = 14), Day 12, Modified ITT, SSc patients, Part A, Subject 01-110 Day 12 score excluded
[3] = Any Cilnidipine (N = 17), Day 12, PP Population Part A, SSc patients
[4] = Any Cilnidipine (N = 17), PP Population Part A, SSc patients
[5] = Cilnidipine 10 mg (N = 4), PP Population Part A
[6] = Cilnidipine 20 mg (N = 4), PP Population Part A
[7] = Pooled Cilnidipine 10 mg and Cilnidipine 10 mg + Tadalafil 5 mg (N = 9), PP Population Part A
[8] = Pooled Cilnidipine 20 mg and Cilnidipine 20 mg + Tadalafil 5 mg (N = 8), PP Population Part A
[9] = Pooled Cilnidipine (N = 8), PP Population Part A
[10] = Cilnidipine 10 mg (N = 3), patients with diagnosis of SSc, sensitivity analysis, Modified ITT, Part A
[11] = Cilnidipine 10 mg (N = 4), Modified ITT, Part A
[12] = Cilnidipine 10 mg, Day 12, PP Population Part A, SSc patients

COCCOC(=O)C1=C(C)NC(C)=C(C(=O)OC/C=C/c2ccccc2)C1c1cccc([N+](=O)[O-])c1 (centres unmarked) [Cilnidipine, cilnidipine]
SHAQ VAS- Breathing problems Change (20 mg): −0.83 | SHAQ VAS- Raynaud's Change (20 mg): −1.27 | SHAQ VAS- overall disease severity Change (20 mg): −1.63 | SHAQ VAS-Pain (20 mg): −1.1 | SHAQ Alternative Disability Index: Change from Baseline, Mean [1]: −0.016 | SHAQ Alternative Disability Index: Change from Baseline, Median [1]: −0.031 | SHAQ Alternative Disability Index: In-Clinic Visit (Day 12), Mean [1]: 0.430 | SHAQ Alternative Disability Index: In-Clinic Visit (Day 12), Median [1]: 0.250 | SHAQ Alternative Disability Index: Percent Change from Baseline, Mean [1]: 17.01% | SHAQ Alternative Disability Index: Percent Change from Baseline, Median [1]: −11.11% | SHAQ Standard Disability Index: Change from Baseline, Mean [1]: −0.050 | SHAQ Standard Disability Index: Change from Baseline, Median [1]: 0.000 | SHAQ Standard Disability Index: In-Clinic Visit (Day 12), Mean [1]: 0.521 | SHAQ Standard Disability Index: In-Clinic Visit (Day 12), Median [1]: 0.250 | SHAQ Standard Disability Index: Percent Change from Baseline, Mean [1]: 2.96% | SHAQ Standard Disability Index: Percent Change from Baseline, Median [1]: 0.00% | SHAQ Visual Analogue Scale - Finger Ulcers: Change from Baseline, Mean [1]: −0.623 | SHAQ Visual Analogue Scale - Finger Ulcers: Change from Baseline, Median [1]: −0.100 | SHAQ Visual Analogue Scale - Finger Ulcers: In-Clinic Visit (Day 12), Mean [1]: 0.900 | SHAQ Visual Analogue Scale - Finger Ulcers: In-Clinic Visit (Day 12), Median [1]: 0.200 | SHAQ Visual Analogue Scale - Finger Ulcers: Percent Change from Baseline, Mean [1]: −33.91% | SHAQ Visual Analogue Scale - Finger Ulcers: Percent Change from Baseline, Median [1]: −36.11% | SHAQ Visual Analogue Scale - Intestinal Problems: Change from Baseline, Mean [1]: −0.404 | SHAQ Visual Analogue Scale - Intestinal Problems: Change from Baseline, Median [1]: 0.000 | SHAQ Visual Analogue Scale - Intestinal Problems: In-Clinic Visit (Day 12), Mean [1]: 1.225 | SHAQ Visual Analogue Scale - Intestinal Problems: In-Clinic Visit (Day 12), Median [1]: 0.650 | SHAQ Visual Analogue Scale - Intestinal Problems: Percent Change from Baseline, Mean [1]: 0.28% | SHAQ Visual Analogue Scale - Intestinal Problems: Percent Change from Baseline, Median [1]: −10.00% | SHAQ Visual Analogue Scale - Overall Disease Severity: Change from Baseline, Mean [1]: −0.904 | SHAQ Visual Analogue Scale - Overall Disease Severity: Change from Baseline, Median [1]: −1.300 | SHAQ Visual Analogue Scale - Overall Disease Severity: In-Clinic Visit (Day 12), Mean [1]: 2.146 | SHAQ Visual Analogue Scale - Overall Disease Severity: In-Clinic Visit (Day 12), Median [1]: 1.300 | SHAQ Visual Analogue Scale - Overall Disease Severity: Percent Change from Baseline, Mean [1]: −30.92% | SHAQ Visual Analogue Scale - Overall Disease Severity: Percent Change from Baseline, Median [1]: −41.67% | SHAQ Visual Analogue Scale - Pain: Change from Baseline, Mean [1]: −0.492 | SHAQ Visual Analogue Scale - Pain: Change from Baseline, Median [1]: −0.500 | SHAQ Visual Analogue Scale - Pain: In-Clinic Visit (Day 12), Mean [1]: 2.236 | SHAQ Visual Analogue Scale - Pain: In-Clinic Visit (Day 12), Median [1]: 2.150 | SHAQ Visual Analogue Scale - Pain: Percent Change from Baseline, Mean [1]: −23.84% | SHAQ Visual Analogue Scale - Pain: Percent Change from Baseline, Median [1]: −21.87% | SHAQ Visual Analogue Scale - Raynaud's: Change from Baseline, Mean [1]: −0.538 | SHAQ Visual Analogue Scale - Raynaud's: Change from Baseline, Median [1]: −0.300 | SHAQ Visual Analogue Scale - Raynaud's: In-Clinic Visit (Day 12), Mean [1]: 1.798 | SHAQ Visual Analogue Scale - Raynaud's: In-Clinic Visit (Day 12), Median [1]: 1.250 | SHAQ Visual Analogue Scale - Raynaud's: Percent Change from Baseline, Mean [1]: −18.26% | SHAQ Visual Analogue Scale - Raynaud's: Percent Change from Baseline, Median [1]: −33.33% | SHAQ Visual Analogue Scale - Breathing Problems: Change from Baseline, Mean [2]: −0.015 | SHAQ Visual Analogue Scale - Breathing Problems: Change from Baseline, Median [2]: 0.000 | SHAQ Visual Analogue Scale - Breathing Problems: In-Clinic Visit (Day 12), Mean [2]: 1.515 | SHAQ Visual Analogue Scale - Breathing Problems: In-Clinic Visit (Day 12), Median [2]: 0.400 | SHAQ Visual Analogue Scale - Breathing Problems: Percent Change from Baseline, Mean [2]: 51.98% | SHAQ Visual Analogue Scale - Breathing Problems: Percent Change from Baseline, Median [2]: −21.33% | SHAQ Standard Disability Index, Change from Baseline, Mean [3]: −0.041 | SHAQ Standard Disability Index, Change from Baseline, Median [3]: 0.000 | SHAQ Standard Disability Index, Percent Change from Baseline, Mean [3]: 3.27% | SHAQ Standard Disability Index, Percent Change from Baseline, Median [3]: 0.00% | SHAQ Standard Disability Index, In-Clinic Visit (Day 12), Mean [4]: 0.539 | SHAQ Standard Disability Index, In-Clinic Visit (Day 12), Median [4]: 0.250 | SHAQ Alternative Disability Index, Mean [5]: 0.500 | SHAQ Alternative Disability Index, Median [5]: 0.438 | SHAQ Standard Disability Index, Mean [5]: 0.656 | SHAQ Standard Disability Index, Median [5]: 0.563 | SHAQ Alternative Disability Index, Mean [6]: 0.219 | SHAQ Alternative Disability Index, Median [6]: 0.250 | SHAQ Standard Disability Index, Mean [6]: 0.344 | SHAQ Standard Disability Index, Median [6]: 0.375 | SHAQ Visual Analogue Scale - Breathing Problems, Mean [7]: 1.511 | SHAQ Visual Analogue Scale - Breathing Problems, Median [7]: 0.800 | SHAQ Visual Analogue Scale - Finger Ulcers, Mean [7]: 0.656 | SHAQ Visual Analogue Scale - Finger Ulcers, Median [7]: 0.200 | SHAQ Visual Analogue Scale - Intestinal Problems, Mean [7]: 2.444 | SHAQ Visual Analogue Scale - Intestinal Problems, Median [7]: 1.100 | SHAQ Visual Analogue Scale - Overall Disease Severity, Mean [7]: 3.044 | SHAQ Visual Analogue Scale - Overall Disease Severity, Median [7]: 1.900 | SHAQ Visual Analogue Scale - Pain, Mean [7]: 3.278 | SHAQ Visual Analogue Scale - Pain, Median [7]: 3.100 | SHAQ Visual Analogue Scale - Raynaud's, Mean [7]: 2.733 | SHAQ Visual Analogue Scale - Raynaud's, Median [7]: 1.400 | SHAQ Visual Analogue Scale - Breathing Problems, Mean [8]: 1.175 | SHAQ Visual Analogue Scale - Breathing Problems, Median [8]: 1.000 | SHAQ Visual Analogue Scale - Finger Ulcers, Mean [8]: 1.986 | SHAQ Visual Analogue Scale - Finger Ulcers, Median [8]: 0.100 | SHAQ Visual Analogue Scale - Intestinal Problems, Mean [8]: 0.813 | SHAQ Visual Analogue Scale - Intestinal Problems, Median [8]: 0.650 | SHAQ Visual Analogue Scale - Overall Disease Severity, Mean [8]: 3.363 | SHAQ Visual Analogue Scale - Overall Disease Severity, Median [8]: 2.950 | SHAQ Visual Analogue Scale - Pain, Mean [8]: 2.800 | SHAQ Visual Analogue Scale - Pain, Median [8]: 2.900 | SHAQ Visual Analogue Scale - Raynaud's, Mean [8]: 2.700 | SHAQ Visual Analogue Scale - Raynaud's, Median [8]: 1.700 | SHAQ Visual Analogue Scale - Breathing Problems, Mean [9]: 1.600 | SHAQ Visual Analogue Scale - Breathing Problems, Median [9]: 0.700 | SHAQ Visual Analogue Scale - Finger Ulcers, Mean [9]: 1.171 | SHAQ Visual Analogue Scale - Finger Ulcers, Median [9]: 0.300 | SHAQ Visual Analogue Scale - Intestinal Problems, Mean [9]: 1.838 | SHAQ Visual Analogue Scale - Intestinal Problems, Median [9]: 0.650 | SHAQ Visual Analogue Scale - Overall Disease Severity, Mean [9]: 2.925 | SHAQ Visual Analogue Scale - Overall Disease Severity, Median [9]: 2.950 | SHAQ Visual Analogue Scale - Pain, Mean [9]: 2.250 | SHAQ Visual Analogue Scale - Pain, Median [9]: 2.150 | SHAQ Visual Analogue Scale - Raynaud's, Mean [9]: 2.338 | SHAQ Visual Analogue Scale - Raynaud's, Median [9]: 1.800 | SHAQ Standard Disability Index: Baseline, Mean [10]: 0.875 | SHAQ Standard Disability Index: Baseline, Median [10]: 1.125 | SHAQ Standard Disability Index: Change from Baseline, Mean [10]: 0.000 | SHAQ Standard Disability Index: Change from Baseline, Median [10]: 0.000 | SHAQ Standard Disability Index: Day 12, Mean [10]: 0.875 | SHAQ Standard Disability Index: Day 12, Median [10]: 1.125 | SHAQ Standard Disability Index: Percent Change from Baseline, Mean [10]: 0.00% | SHAQ Standard Disability Index: Percent Change from Baseline, Median [10]: 0.00% | SHAQ Overall Severity: Baseline, Mean [11]: 2.725 | SHAQ Overall Severity: Baseline, Median [11]: 1.900 | SHAQ Overall Severity: Change from Baseline, Mean [11]: −0.900 | SHAQ Overall Severity: Change from Baseline, Median [11]: −0.950 | SHAQ Overall Severity: Day 12, Mean [11]: 1.825 | SHAQ Overall Severity: Day 12, Median [11]: 1.050 | SHAQ Overall Severity: Percent Change from Baseline, Mean [11]: −56.96% | SHAQ Overall Severity: Percent Change from Baseline, Median [11]: −44.12% | SHAQ Visual Analogue Scale - Breathing Problems, Change from Baseline, Mean [12]: −0.300 | SHAQ Visual Analogue Scale - Breathing Problems, Change from Baseline, Median [12]: 0.000 | SHAQ Visual Analogue Scale - Breathing Problems, Percent Change from Baseline, Mean [12]: −16.00% | SHAQ Visual Analogue Scale - Breathing Problems, Percent Change from Baseline, Median [12]: −16.00%
